One experiment relates to NCI-H358 (K-Ras G12C). In words: CellTiter-Glo cell viability assay, NCI-H358. In kind it is cell-based, human. To be noted: NCI-H358, 5-day treatment, class symbols, read-out: Additional H358 Cell Viability assay data (K-Ras G12C, IC50). The method, then:
Note—The following protocol describes a procedure for monitoring cell viability of K-Ras mutant cancer cell lines in response to a compound of the invention. Other RAS isoforms may be employed, though the number of cells to be seeded will vary based on cell line used.
Test compounds (132.5 nL) were directly dispensed into the assay plates containing cells. […] On day 5, assay plates and their contents were equilibrated to room temperature for approximately 30 minutes. […] Luminescence was measured using the PerkinElmer Enspire. Data were normalized by the following: (Sample signal/Avg. DMSO)*100. The data were fit using a four-parameter logistic fit.

Experiment [1] has as its system NCI-H358 cells (K-Ras G12C). Briefly: Potency assay: pERK in NCI-H358 cells. To be noted: H358 KRAS G12C, read-out: pERK EC50. The experiment is classed as cell-based, human. Here is the method:
The purpose of this assay is to measure the ability of test compounds to inhibit K-Ras in cells. […] This procedure measures a decrease in cellular pERK in response to test compounds.
NCI-H358 cells were grown and maintained using media and procedures recommended by the ATCC. On the day prior to compound addition, cells were plated in 384-well cell culture plates (40 μl/well) and grown overnight in a 37° C., 5% CO2 incubator. Test compounds were prepared in 10, 3-fold dilutions in DMSO, with a high concentration of 10 mM. On the day of assay, 40 nL of test compound was added to each well of cell culture plate using an Echo550 liquid handler (LabCyte®). Concentrations of test compound were tested in duplicate. After compound addition, cells were incubated 4 hours at 37° C., 5% CO2. Following incubation, culture medium was removed and cells were washed once with phosphate buffered saline.
In some experiments, cellular pERK level was determined using the AlphaLISA SureFire Ultra p-ERK1/2 Assay Kit (PerkinElmer). Cells were lysed in 25 μL lysis buffer, with shaking at 600 RPM at room temperature. […] After a 2-hour incubation in the dark, 5 μL donor mix was added, plate was sealed, and incubated 2 hours at room temperature. Signal was read on an Envision plate reader (PerkinElmer) using standard AlphaLISA settings. Analysis of raw data was carried out in Excel (Microsoft) and Prism (GraphPad). Signal was plotted vs. the decadal logarithm of compound concentration, and IC50 was determined by fitting a 4-parameter sigmoidal concentration response model.
In other experiments, cellular pERK was determined by In-Cell Western. […] Fixed cells were washed 4 times for 5 minutes with TBS containing 0.1% Triton X-100 (TBST) and then blocked with 100 μL Odyssey blocking buffer (LI-COR) for 60 minutes at room temperature. […] Cells were washed 4 times for 5 minutes with TBST. Secondary antibody (IR-800CW rabbit, LI-COR, diluted 1:800) and DNA stain DRAQS (LI-COR, diluted 1:2000) were added and incubated 1-2 hours at room temperature. Cells were washed 4 times for 5 minutes with TBST. Plates were scanned on a Li-COR Odyssey CLx Imager. Analysis of raw data was carried out in Excel (Microsoft) and Prism (Graph Pad). Signal was plotted vs. the decadal logarithm of compound concentration, and IC50 was determined by fitting a 4-parameter sigmoidal concentration response model.

Like-named read-outs stand apart in the source and are kept apart here.

On to `C=CC(=O)N1CC[C@H](C(=O)N(C)[C@H](C(=O)N[C@H]2Cc3cc(O)cc(c3)-c3ccc4c(c3)c(c(-c3cccnc3COC)n4CC)CC(C)(C)COC(=O)[C@@H]3CCCN(N3)C2=O)C2CCCC2)C1` [Example A55], for which, in the experiment with NCI-H358 (K-Ras G12C) (Homo sapiens, NCI-H358, 120 h), the 50% inhibitory concentration (IC50) was < 10 nM. Also, in experiment [1] (Homo sapiens, NCI-H358), the half-maximal effective concentration (EC50) was < 5000 nM.
As to `C=CC(=O)N1CC[C@H](C(=O)N(C)[C@H](C(=O)N[C@H]2Cc3cc(OC(=O)CN)cc(c3)-c3ccc4c(c3)c(c(-c3ccccc3CCOC)n4CC)CC(C)(C)COC(=O)[C@@H]3CCCN(N3)C2=O)C(C)C)C1` [Example A8], the IC50 with NCI-H358 (K-Ras G12C) (Homo sapiens, NCI-H358, 120 h) was in the range of 100 to 1000 nM. Moreover, in experiment [1] (Homo sapiens, NCI-H358), the EC50 was < 5000 nM.
The corresponding values for `C=CC(=O)N1CC[C@H](C(=O)N(C)[C@H](C(=O)N[C@H]2Cc3cc(O)cc(c3)-c3ccc4c(c3)c(c(-c3cccnc3COCC)n4CC)CC(C)(C)COC(=O)[C@@H]3CCCN(N3)C2=O)C(C)C)C1` [Example A44] are 10 to 100 nM and < 5000 nM.
For the molecule `C=CC(=O)N1CC[C@H](C(=O)N(C)[C@H](C(=O)N[C@H]2Cc3cc(O)cc(c3)-c3ccc4c(c3)c(c(-c3c(F)cccc3CCOC)n4CC)CC(C)(C)COC(=O)[C@@H]3CCCN(N3)C2=O)C(C)C)C1` [Example A25], the half-maximal inhibitory concentration (IC50) in the experiment with NCI-H358 (K-Ras G12C) (Homo sapiens, NCI-H358, 120 h) lay in the range of 100 to 1000 nM. Moreover, in experiment [1] (Homo sapiens, NCI-H358), the 50% effective concentration (EC50) is < 5000 nM.
On to `C=CC(=O)N1CC[C@H](C(=O)N(C)[C@H](C(=O)N[C@H]2Cc3cc(O)cc(c3)-c3ccc4c(c3)c(c(-c3nccnc3COC)n4CC)CC(C)(C)COC(=O)[C@@H]3CCCN(N3)C2=O)C(C)C)C1` [Example A85], for which, in the experiment with NCI-H358 (K-Ras G12C) (Homo sapiens, NCI-H358, 120 h), the IC50 is 100 to 1000 nM. For the same molecule, the EC50 in experiment [1] (Homo sapiens, NCI-H358) was < 5000 nM.
The corresponding values for `CCn1c(-c2ccccc2CCOC)c2c3cc(ccc31)-c1cc(O)cc(c1)C[C@H](NC(=O)[C@H](C(C)C)N(C)C(=O)[C@H]1CCN(C(=O)C#CCN(C)C)C1)C(=O)N1CCC[C@H](N1)C(=O)OCC(C)(C)C2` [Example A38] are < 10 nM and < 5000 nM.
As to `C=CC(=O)N1CC[C@H](C(=O)N(C)[C@H](C(=O)N[C@H]2Cc3cc(O)cc(c3)-c3ccc4c(c3)c(c(-c3ccccc3)n4CC)CC(C)(C)COC(=O)[C@@H]3CCCN(N3)C2=O)C(C)C)C1` [Example A23], in the experiment with NCI-H358 (K-Ras G12C) (Homo sapiens, NCI-H358, 120 h), the IC50 is 100 to 1000 nM. Further, in experiment [1] (Homo sapiens, NCI-H358), the concentration giving a half-maximal response (EC50) was < 5000 nM.
With `C=CC(=O)N1CC[C@H](C(=O)N(C)[C@H](C(=O)N[C@H]2Cc3cc(O)cc(c3)-c3ccc4c(c3)c(c(-c3cnccc3COC)n4CC)CC(C)(C)COC(=O)[C@@H]3CCCN(N3)C2=O)C(C)C)C1` [Example A28, (2S)-N-[(8S,14S)-22-ethyl-4-hydroxy-21-[4-(methoxymethyl)pyridin-3-yl]-18,18-dimethyl-9,15-dioxo-16-oxa-10,22,28-triazapentacyclo[18.5.2.1^[2,6].1^[10,14].0^[23,27]]nonacosa-1(26),2,4,6(29),20,23(27),24-heptaen-8-yl]-3-methyl-2-[N-methyl-1-[(3S)-1-(prop-2-enoyl)pyrrolidin-3-yl]formamido]butanamide], in the experiment on NCI-H358 (K-Ras G12C), the IC50 was < 10 nM. Also, the EC50 in experiment [1] was < 5000 nM.
Regarding `C=CC(=O)N1CC[C@H](C(=O)N(C)[C@H](C(=O)N[C@H]2Cc3cc(O)cc(c3)-c3ccc4c(c3)c(c([C@@H]3CC=CN=C3COC)n4CC)CC(C)(C)COC(=O)[C@@H]3CCCN(N3)C2=O)C(C)C)C1` [Example A65], the IC50 with NCI-H358 (K-Ras G12C) (Homo sapiens, NCI-H358, 120 h) was in the range of 100 to 1000 nM. Besides, in experiment [1] (Homo sapiens, NCI-H358), the EC50 is < 5000 nM.
The corresponding values for `C=CC(=O)N1C[C@H](C)[C@H](C(=O)N(C)[C@H](C(=O)N[C@H]2Cc3cc(O)cc(c3)-c3ccc4c(c3)c(c(-c3cccnc3COC)n4CC)CC(C)(C)COC(=O)[C@@H]3CCCN(N3)C2=O)C2CCCC2)C1` [Example A57] are < 10 nM and < 5000 nM.
As to `C=CC(=O)N1CC[C@H](C(=O)N(C)[C@H](C(=O)N[C@H]2Cc3cc(O)cc(c3)-c3ccc4c(c3)c(c(-c3cccnc3[C@H](C)OC)n4CC)CC(C)(C)COC(=O)[C@@H]3CCCN(N3)C2=O)C(C)C)C1` (atropisomer, axis not shown; (M)) [Example A75, (2S)-N-[(8S,14S,20M)-22-ethyl-4-hydroxy-21-{2-[(1S)-1-methoxyethyl]pyridin-3-yl}-18,18-dimethyl-9,15-dioxo-16-oxa-10,22,28-triazapentacyclo[18.5.2.1^2,^6.1^10,^14.0^23,^27]nonacosa-1(26),2,4,6(29),20,23(27),24-heptaen-8-yl]-3-methyl-2-{N-methyl-1-[(3S)-1-(prop-2-enoyl)pyrrolidin-3-yl]formamido}butanamide], the IC50 in the experiment with NCI-H358 (K-Ras G12C) (Homo sapiens, NCI-H358, 120 h) was 10 to 100 nM; with NCI-H358 (K-Ras G12C), < 10 nM. The EC50 in experiment [1] (Homo sapiens, NCI-H358) was < 5000 nM.
As for `C=CC(=O)N1CC[C@H](C(=O)N(C)[C@H](C(=O)N[C@H]2Cc3cc(O)cc(c3)-c3ccc4c(c3)c(c(-c3ccccc3N3CCOCC3)n4CC)CC(C)(C)COC(=O)[C@@H]3CCCN(N3)C2=O)C(C)C)C1` [Example A26], the IC50 in the experiment with NCI-H358 (K-Ras G12C) (Homo sapiens, NCI-H358, 120 h) lay in the range of 100 to 1000 nM. In experiment [1] (Homo sapiens, NCI-H358), the 50% effective concentration (EC50) is < 5000 nM.
The corresponding values for `C=CC(=O)N1CC[C@H](C(=O)N(C)[C@H](C(=O)N[C@H]2Cc3cc(O)cc(c3)-c3ccc4c(c3)c(c(-c3cnccc3COC)n4CC)CC(C)(C)COC(=O)[C@@H]3CCCN(N3)C2=O)C(C)C)C1` [Example A91] are < 10 nM and < 5000 nM.
Consider `C=CC(=O)N1CCC(C(=O)N(C)[C@H](C(=O)N[C@H]2Cc3cc(O)cc(c3)-c3ccc4c(c3)c(c(-c3ccccc3CN(C)C)n4CC)CC(C)(C)COC(=O)[C@@H]3CCCN(N3)C2=O)C(C)C)CC1` [Example A33], for which the IC50 with NCI-H358 (K-Ras G12C) (Homo sapiens, NCI-H358, 120 h) fell in the range of 100 to 1000 nM. Besides, in experiment [1] (Homo sapiens, NCI-H358), the EC50 is < 5000 nM.
The corresponding values for `C=CC(=O)N1CC[C@H](C(=O)N(C)[C@H](C(=O)N[C@H]2Cc3cc(O)cc(c3)-c3ccc4c(c3)c(c(-c3cccnc3COC)n4C)CC(C)(C)COC(=O)[C@@H]3CCCN(N3)C2=O)C(C)C)C1` [Example A66] are 10 to 100 nM and < 5000 nM.
The corresponding values for `CCn1c(-c2cccnc2COC)c2c3cc(ccc31)-c1cc(O)cc(c1)C[C@H](NC(=O)[C@H](C(C)C)N(C)C(=O)[C@H]1CCN(C(=O)/C=C/CN(C)C)C1)C(=O)N1CCC[C@H](N1)C(=O)OCC(C)(C)C2` [Example A54, (2S)-2-{1-[(3S)-1-[(2E)-4-(dimethylamino)but-2-enoyl]pyrrolidin-3-yl]-N-methylformamido}-N-[(8S,14S)-22-ethyl-4-hydroxy-21-[2-(methoxymethyl)pyridin-3-yl]-18,18-dimethyl-9,15-dioxo-16-oxa-10,22,28-triazapentacyclo[18.5.2.1^2,^6.1^10,^14.0^23,^27]nonacosa-1(26),2,4,6(29),20,23(27),24-heptaen-8-yl]-3-methylbutanamide] are 10 to 100 nM and < 5000 nM.
On to `C=CC(=O)N1CC[C@H](C(=O)N(C)[C@H](C(=O)N[C@H]2Cc3cc(O)cc(c3)-c3ccc4c(c3)c(c(-c3c(CCOC)cccc3OC)n4CC)CC(C)(C)COC(=O)[C@@H]3CCCN(N3)C2=O)C(C)C)C1` [Example A80], for which the IC50 in the experiment on NCI-H358 (K-Ras G12C) (Homo sapiens, NCI-H358, 120 h) was 100 to 1000 nM. For the same molecule, the EC50 in experiment [1] (Homo sapiens, NCI-H358) was < 5000 nM.
Take `C=CC(=O)N1CC[C@H](C(=O)N(C)[C@H](C(=O)N[C@H]2Cc3cc(O)cc(c3)-c3ccc4c(c3)c(c(-c3cccnc3)n4CC)CC(C)(C)COC(=O)[C@@H]3CCCN(N3)C2=O)C(C)C)C1` [Example A45]: the IC50 in the experiment with NCI-H358 (K-Ras G12C) (Homo sapiens, NCI-H358, 120 h) is 10 to 100 nM. In addition, the 50% effective concentration (EC50) in experiment [1] (Homo sapiens, NCI-H358) is < 5000 nM.
In the same order, the values of `CCn1c(-c2cccnc2COC)c2c3cc(ccc31)-c1cc(O)cc(c1)C[C@H](NC(=O)[C@H](C(C)C)N(C)C(=O)c1ccc(NC(=O)/C=C/CN(C)C)cn1)C(=O)N1CCC[C@H](N1)C(=O)OCC(C)(C)C2` [Example A67, (2E)-4-(dimethylamino)-N-(6-{[(1S)-1-{[(8S,14S)-22-ethyl-4-hydroxy-21-[2-(methoxymethyl)pyridin-3-yl]-18,18-dimethyl-9,15-dioxo-16-oxa-10,22,28-triazapentacyclo[18.5.2.1^2,^6.1^10,^14.0^23,^27]nonacosa-1(26),2,4,6(29),20,23(27),24-heptaen-8-yl]carbamoyl}-2-methylpropyl](methyl)carbamoyl}pyridin-3-yl)but-2-enamide] are 100 to 1000 nM and < 5000 nM.
